Assay results: PubChem BioAssay (NCI)
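How tested: cells in 96-well plates exposed to compound for 48 hours at five concentrations. The concentration for full growth arrest is given as TGI.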

Assays:
Assay in all cases: NCI tumour cell line growth inhibition, 48 h
786-0 renal = system: 786-0 renal
A549 NSCLC = system: A549 NSCLC
CCRF-CEM leukemia = system: CCRF-CEM leukemia
EKVX NSCLC = system: EKVX NSCLC
HCC-2998 colon = system: HCC-2998 colon
HCT-116 colon = system: HCT-116 colon
HL-60(TB) leukemia = system: HL-60(TB) leukemia
HOP-62 NSCLC = system: HOP-62 NSCLC
HS 578T breast = system: HS 578T breast
HT29 colon = system: HT29 colon
K-562 leukemia = system: K-562 leukemia
KM12 colon = system: KM12 colon
M14 melanoma = system: M14 melanoma
MCF7 breast = system: MCF7 breast
MDA-MB-231 breast = system: MDA-MB-231 breast
MDA-MB-435 = system: MDA-MB-435
MDA-N = system: MDA-N
MOLT-4 leukemia = system: MOLT-4 leukemia
NCI-H460 lung = system: NCI-H460 lung
NCI-H522 lung = system: NCI-H522 lung
NCI/ADR-RES ovarian = system: NCI/ADR-RES ovarian
OVCAR-4 ovarian = system: OVCAR-4 ovarian
OVCAR-5 ovarian = system: OVCAR-5 ovarian
OVCAR-8 ovarian = system: OVCAR-8 ovarian
PC-3 prostate = system: PC-3 prostate
RPMI-8226 leukemia = system: RPMI-8226 leukemia
SF-268 CNS = system: SF-268 CNS
SF-295 CNS = system: SF-295 CNS
SF-539 CNS = system: SF-539 CNS
SK-MEL-28 melanoma = system: SK-MEL-28 melanoma
SK-MEL-5 melanoma = system: SK-MEL-5 melanoma
SK-OV-3 ovarian = system: SK-OV-3 ovarian
SN12C renal = system: SN12C renal
SNB-19 CNS = system: SNB-19 CNS
SNB-75 CNS = system: SNB-75 CNS
SR leukemia = system: SR leukemia
SW-620 colon = system: SW-620 colon
T-47D breast = system: T-47D breast
TK-10 renal = system: TK-10 renal
U251 CNS = system: U251 CNS
UACC-257 melanoma = system: UACC-257 melanoma
UO-31 renal = system: UO-31 renal
A498 renal = system: A498 renal
ACHN renal = system: ACHN renal
CAKI-1 renal = system: CAKI-1 renal
COLO 205 colon = system: COLO 205 colon
DU-145 prostate = system: DU-145 prostate
HCT-15 colon = system: HCT-15 colon
HOP-92 NSCLC = system: HOP-92 NSCLC
IGROV1 ovarian = system: IGROV1 ovarian
LOX IMVI melanoma = system: LOX IMVI melanoma
MALME-3M melanoma = system: MALME-3M melanoma
NCI-H226 lung = system: NCI-H226 lung
NCI-H23 lung = system: NCI-H23 lung
OVCAR-3 ovarian = system: OVCAR-3 ovarian
RXF 393 renal = system: RXF 393 renal
SK-MEL-2 melanoma = system: SK-MEL-2 melanoma
UACC-62 melanoma = system: UACC-62 melanoma

O=C(C1C(c2ccccc2)N1C(c1ccccc1)c1ccccc1)C1C(c2ccccc2)N1C(c1ccccc1)c1ccccc1 (configuration not stated)
TGI (786-0 renal): 48.2 µM | TGI (A549 NSCLC): > 100 µM | TGI (CCRF-CEM leukemia): 22.9 µM | TGI (EKVX NSCLC): > 100 µM | TGI (HCC-2998 colon): 37.8 µM | TGI (HCT-116 colon): 15.8 µM | TGI (HL-60(TB) leukemia): 12 µM | TGI (HOP-62 NSCLC): > 100 µM | TGI (HS 578T breast): 46.3 µM | TGI (HT29 colon): 30.2 µM | TGI (K-562 leukemia): 20.3 µM | TGI (KM12 colon): 72.8 µM | TGI (M14 melanoma): > 100 µM | TGI (MCF7 breast): 22.4 µM | TGI (MDA-MB-231 breast): 45.4 µM | TGI (MDA-MB-435): > 100 µM | TGI (MDA-N): > 100 µM | TGI (MOLT-4 leukemia): 33.4 µM | TGI (NCI-H460 lung): 29.5 µM | TGI (NCI-H522 lung): 23.7 µM | TGI (NCI/ADR-RES ovarian): > 100 µM | TGI (OVCAR-4 ovarian): > 100 µM | TGI (OVCAR-5 ovarian): 81.2 µM | TGI (OVCAR-8 ovarian): > 100 µM | TGI (PC-3 prostate): 53.7 µM | TGI (RPMI-8226 leukemia): 10.9 µM | TGI (SF-268 CNS): 67.5 µM | TGI (SF-295 CNS): > 100 µM | TGI (SF-539 CNS): 43.4 µM | TGI (SK-MEL-28 melanoma): 36.1 µM | TGI (SK-MEL-5 melanoma): 49.8 µM | TGI (SK-OV-3 ovarian): > 100 µM | TGI (SN12C renal): 46.9 µM | TGI (SNB-19 CNS): > 100 µM | TGI (SNB-75 CNS): > 100 µM | TGI (SR leukemia): 16.6 µM | TGI (SW-620 colon): 37.2 µM | TGI (T-47D breast): > 100 µM | TGI (TK-10 renal): 60.9 µM | TGI (U251 CNS): 71.8 µM | TGI (UACC-257 melanoma): 40.3 µM | TGI (UO-31 renal): 38.4 µM

Cc1ccc(Nc2nc(N)nc3c2ncn3C2OC(CO)C(O)C2O)cc1 (configuration not stated)
TGI (786-0 renal): > 100 µM | TGI (A498 renal): > 100 µM | TGI (A549 NSCLC): > 100 µM | TGI (ACHN renal): > 100 µM | TGI (CAKI-1 renal): > 100 µM | TGI (CCRF-CEM leukemia): > 100 µM | TGI (COLO 205 colon): > 100 µM | TGI (DU-145 prostate): > 100 µM | TGI (EKVX NSCLC): > 100 µM | TGI (HCC-2998 colon): > 100 µM | TGI (HCT-116 colon): > 100 µM | TGI (HCT-15 colon): > 100 µM | TGI (HL-60(TB) leukemia): > 100 µM | TGI (HOP-62 NSCLC): > 100 µM | TGI (HOP-92 NSCLC): > 100 µM | TGI (HT29 colon): > 100 µM | TGI (IGROV1 ovarian): > 100 µM | TGI (K-562 leukemia): > 100 µM | TGI (KM12 colon): > 100 µM | TGI (LOX IMVI melanoma): > 100 µM | TGI (M14 melanoma): > 100 µM | TGI (MALME-3M melanoma): > 100 µM | TGI (MCF7 breast): > 100 µM | TGI (MDA-MB-231 breast): > 100 µM | TGI (MDA-MB-435): > 100 µM | TGI (MDA-N): > 100 µM | TGI (MOLT-4 leukemia): > 100 µM | TGI (NCI-H226 lung): > 100 µM | TGI (NCI-H23 lung): > 100 µM | TGI (NCI-H522 lung): > 100 µM | TGI (NCI/ADR-RES ovarian): > 100 µM | TGI (OVCAR-3 ovarian): > 100 µM | TGI (OVCAR-4 ovarian): > 100 µM | TGI (OVCAR-5 ovarian): > 100 µM | TGI (OVCAR-8 ovarian): > 100 µM | TGI (PC-3 prostate): > 100 µM | TGI (RPMI-8226 leukemia): > 100 µM | TGI (RXF 393 renal): > 100 µM | TGI (SF-295 CNS): > 100 µM | TGI (SF-539 CNS): > 100 µM | TGI (SK-MEL-2 melanoma): > 100 µM | TGI (SK-MEL-28 melanoma): > 100 µM | TGI (SK-MEL-5 melanoma): > 100 µM | TGI (SK-OV-3 ovarian): > 100 µM | TGI (SN12C renal): > 100 µM | TGI (SNB-19 CNS): > 100 µM | TGI (SNB-75 CNS): > 100 µM | TGI (SW-620 colon): > 100 µM | TGI (T-47D breast): > 100 µM | TGI (TK-10 renal): > 100 µM | TGI (U251 CNS): > 100 µM | TGI (UACC-257 melanoma): > 100 µM | TGI (UACC-62 melanoma): > 100 µM | TGI (UO-31 renal): > 100 µM

C(=NCc1ccccc1)c1ccccc1-c1ccccc1C=NCc1ccccc1
TGI (786-0 renal): > 10 µM | TGI (A498 renal): > 10 µM | TGI (A549 NSCLC): > 10 µM | TGI (ACHN renal): > 10 µM | TGI (CAKI-1 renal): > 10 µM | TGI (CCRF-CEM leukemia): > 10 µM | TGI (COLO 205 colon): > 10 µM | TGI (DU-145 prostate): > 10 µM | TGI (EKVX NSCLC): > 10 µM | TGI (HCT-116 colon): > 10 µM | TGI (HCT-15 colon): > 10 µM | TGI (HL-60(TB) leukemia): 5.73 µM | TGI (HOP-62 NSCLC): > 10 µM | TGI (HOP-92 NSCLC): > 10 µM | TGI (HT29 colon): > 10 µM | TGI (IGROV1 ovarian): > 10 µM | TGI (K-562 leukemia): 9.76 µM | TGI (KM12 colon): > 10 µM | TGI (LOX IMVI melanoma): > 10 µM | TGI (M14 melanoma): > 10 µM | TGI (MALME-3M melanoma): > 10 µM | TGI (MCF7 breast): > 10 µM | TGI (MDA-MB-231 breast): > 10 µM | TGI (MDA-MB-435): > 10 µM | TGI (MDA-N): > 10 µM | TGI (MOLT-4 leukemia): > 10 µM | TGI (NCI-H226 lung): > 10 µM | TGI (NCI-H23 lung): > 10 µM | TGI (NCI-H460 lung): > 10 µM | TGI (NCI-H522 lung): > 10 µM | TGI (NCI/ADR-RES ovarian): > 10 µM | TGI (OVCAR-3 ovarian): > 10 µM | TGI (OVCAR-4 ovarian): > 10 µM | TGI (OVCAR-5 ovarian): > 10 µM | TGI (OVCAR-8 ovarian): > 10 µM | TGI (PC-3 prostate): > 10 µM | TGI (RPMI-8226 leukemia): > 10 µM | TGI (RXF 393 renal): > 10 µM | TGI (SF-268 CNS): > 10 µM | TGI (SF-295 CNS): > 10 µM | TGI (SF-539 CNS): > 10 µM | TGI (SK-MEL-2 melanoma): > 10 µM | TGI (SK-MEL-28 melanoma): > 10 µM | TGI (SK-MEL-5 melanoma): > 10 µM | TGI (SK-OV-3 ovarian): > 10 µM | TGI (SN12C renal): > 10 µM | TGI (SNB-19 CNS): > 10 µM | TGI (SNB-75 CNS): > 10 µM | TGI (SR leukemia): > 10 µM | TGI (SW-620 colon): > 10 µM | TGI (T-47D breast): > 10 µM | TGI (TK-10 renal): > 10 µM | TGI (U251 CNS): > 10 µM | TGI (UACC-257 melanoma): 7.53 µM | TGI (UACC-62 melanoma): > 10 µM | TGI (UO-31 renal): > 10 µM
